Results on four compounds are retold here after patent publication US12281149B2, “Modulators of G-protein coupled receptors” (priority 2021, dated 2025).

Common to all, as to format: cell-based
Assay [1] addresses T1, GLP-1 receptor (Homo sapiens, UniProt P43220). The experiment in a line: HitHunter cAMP assay, GLP-1 receptor. The note with it: for EC50: CHO cells stably expressing human GLP-1 receptor, cAMP accumulation, 30 min, read-out: EC50 GLP-1R; for Emax: CHO cells, cAMP, normalized to maximum signal from GLP-1 (high) and DMSO (low), read-out: Emax GLP-1R. Background: Changes in cAMP serve as a functional read-out for many G protein-coupled receptors.

Assay [2] addresses T2, GIP receptor (Homo sapiens, UniProt P48546).
T2 sequence (P48546 22-466): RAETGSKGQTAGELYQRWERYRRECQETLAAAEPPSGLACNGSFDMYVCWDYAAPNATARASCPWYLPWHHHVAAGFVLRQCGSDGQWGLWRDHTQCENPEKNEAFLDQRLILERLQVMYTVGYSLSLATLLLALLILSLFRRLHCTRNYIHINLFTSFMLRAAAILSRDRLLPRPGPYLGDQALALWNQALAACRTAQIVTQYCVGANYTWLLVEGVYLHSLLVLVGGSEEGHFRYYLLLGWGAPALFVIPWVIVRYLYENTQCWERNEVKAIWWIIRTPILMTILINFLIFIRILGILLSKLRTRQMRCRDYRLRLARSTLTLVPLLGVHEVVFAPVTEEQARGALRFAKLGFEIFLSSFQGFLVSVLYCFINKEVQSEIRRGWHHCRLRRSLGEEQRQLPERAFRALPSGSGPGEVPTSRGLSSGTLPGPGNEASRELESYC
As to the kind of experiment: PathHunter β-arrestin assay, GIP receptor. The note with it: β-arrestin-2 recruitment, PathHunter CHO-K1 GIPR β-Arrestin Cell Line, 90 min at 37° C.; normalized to GIP; read-out: GIPR β Arrestin EC50. The arrangement: host or cells: PathHunter CHO-K1 GIPR β-Arrestin Cell Line. In general terms: Activated receptors often draw arrestin, which recruitment assays turn into a signal.

In assay [3] the target is T1, GLP-1 receptor. As to the kind of experiment: PathHunter β-arrestin assay, GLP-1 receptor. The arrangement: host or cells: PathHunter CHO-K1 GLP1R β-Arrestin Cell Line. The note with it: β-arrestin-2 recruitment, PathHunter CHO-K1 GLP1R β-Arrestin Cell Line, 90 min at 37° C.; normalized to GLP-1; read-out: GLP-1R β Arrestin EC50.
Assay [4] has as its target T2, GIP receptor. As to the kind of experiment: HitHunter cAMP assay, GIP receptor. The note with it: for EC50: CHO cells stably expressing GIP receptor, cAMP accumulation, 30 min, read-out: EC50 GIP-1R; for Emax: CHO cells, cAMP, normalized to maximum signal from GIP (high) and DMSO (low), read-out: Emax GIP-1R.

*1 amine or outer side, *2 acyl side, *3 side chain or, on linkers, in order; H or OH if unused. Where a SMILES comes first, the peptide text is derived from it. Side-chain parts run from the residue outwards. [ ]: non-standard residue; d: D form. The star is where a group is joined. Isobutyryl(2-(3-CN-5-F-Ph)) = CC(C)(C(=O)*)c1cc(F)cc(C#N)c1; C20 diacid = O=C(O)CCCCCCCCCCCCCCCCCCC(=O)*; αMePhe(2-F) = C[C@](N)(Cc1ccccc1F)C(=O)O; βPro(3S) = O=C([C@H]1CCN([*:1])C1)[*:2]; γGlu = O=C(O)[C@H](CCC(=O)[*:2])N[*:1]; X84 = O=C([C@H]1CCCN([*:1])C1)[*:2]; AEEA = NCCOCCOCC(=O)O; Aib = CC(C)(N)C(=O)O; βAla = NCCC(=O)O A value given as a limit tells only on which side of the number the result lay.

T1 sequence (P43220 24-463): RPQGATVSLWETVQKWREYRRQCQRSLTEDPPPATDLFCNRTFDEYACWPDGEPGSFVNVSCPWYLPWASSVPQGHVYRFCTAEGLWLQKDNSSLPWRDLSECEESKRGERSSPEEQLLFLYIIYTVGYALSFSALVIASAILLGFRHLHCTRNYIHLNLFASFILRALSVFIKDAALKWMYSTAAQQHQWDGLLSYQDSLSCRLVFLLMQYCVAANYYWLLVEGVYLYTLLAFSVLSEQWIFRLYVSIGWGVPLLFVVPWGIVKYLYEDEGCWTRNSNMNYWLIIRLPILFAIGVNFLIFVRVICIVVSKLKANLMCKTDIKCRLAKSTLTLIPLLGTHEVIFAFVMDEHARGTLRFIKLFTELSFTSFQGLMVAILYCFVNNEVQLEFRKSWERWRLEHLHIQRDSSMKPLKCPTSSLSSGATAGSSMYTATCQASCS

For the compound `CC[C@H](C)[C@H](NC(=O)[C@H](CC(C)C)NC(=O)[C@H](Cc1c[nH]c2ccccc12)NC(=O)[C@H](CCC(N)=O)NC(=O)[C@@H](NC(=O)[C@H](Cc1ccccc1)NC(=O)[C@H](C)NC(=O)[C@H](CCCCNC(=O)COCCOCCNC(=O)COCCOCCNC(=O)CC[C@H](NC(=O)CCCCCCCCCCCCCCCCCCC(=O)O)C(=O)O)NC(=O)[C@H](CCC(N)=O)NC(=O)[C@H](C)NC(=O)[C@@H](NC(=O)[C@H](CCCCN)NC(=O)[C@H](CC(=O)O)NC(=O)[C@H](CC(C)C)NC(=O)C(C)(C)NC(=O)[C@@H](NC(=O)[C@H](CO)NC(=O)[C@H](Cc1ccc(O)cc1)NC(=O)[C@H](CC(=O)O)NC(=O)[C@H](CO)NC(=O)[C@@H](NC(=O)[C@H](Cc1ccccc1)NC(=O)[C@@H](NC(=O)CNC(=O)[C@H](CCC(=O)O)NC(=O)[C@H]1CCN(C(=O)C(C)(C)c2cc(F)cc(C#N)c2)C1)[C@@H](C)O)[C@@H](C)O)[C@@H](C)CC)[C@@H](C)CC)C(C)C)C(=O)N[C@@H](C)C(=O)NCC(=O)NCC(=O)N1CCC[C@H]1C(=O)N[C@@H](CO)C(=O)N[C@@H](CO)C(=O)NCC(=O)N[C@@H](C)C(=O)N1CCC[C@H]1C(=O)N1CCC[C@H]1C(=O)N1CCC[C@H]1C(=O)N[C@@H](CO)C(N)=O` [Compound 195] ({Isobutyryl(2-(3-CN-5-F-Ph))}-[βPro(3S)]EGTFTSDYSI[Aib]LDKIAQK([AEEA-AEEA-γGlu-C20 diacid])AFVQWLIAGGPSSGAPPPS-NH2), the EC50 on GLP-1 receptor [1] is 100 to 1000 nM; on GIP receptor [2], above 1000 nM; on GLP-1 receptor [3] it was above 1000 nM; at GIP receptor [4] it was 100 to 1000 nM. In addition, the Emax on GLP-1 receptor [1] worked out at 51%; on GIP receptor [4] it was 72%.
Turning to `CC[C@H](C)[C@H](NC(=O)[C@H](CO)NC(=O)[C@H](Cc1ccc(O)cc1)NC(=O)[C@H](CC(=O)O)NC(=O)[C@H](CO)NC(=O)[C@@H](NC(=O)[C@H](Cc1ccccc1)NC(=O)[C@@H](NC(=O)CNC(=O)[C@H](CCC(=O)O)NC(=O)CCNC(=O)C1(c2ccccc2)CCOCC1)[C@@H](C)O)[C@@H](C)O)C(=O)N[C@@H](Cc1ccc(O)cc1)C(=O)N[C@@H](CC(C)C)C(=O)N[C@@H](CC(=O)O)C(=O)N[C@@H](CCCCN)C(=O)N[C@@H](CCC(N)=O)C(=O)N[C@@H](C)C(=O)N[C@@H](C)C(=O)NC(C)(C)C(=O)N[C@@H](CCC(=O)O)C(=O)N[C@@H](Cc1ccccc1)C(=O)N[C@H](C(=O)N[C@@H](CC(N)=O)C(=O)N[C@@H](Cc1c[nH]c2ccccc12)C(=O)N[C@@H](CC(C)C)C(=O)N[C@@H](CC(C)C)C(=O)N[C@@H](C)C(=O)NCC(=O)NCC(=O)N1CCC[C@H]1C(=O)N[C@@H](CO)C(=O)N[C@@H](CO)C(=O)NCC(=O)N[C@@H](C)C(=O)N1CCC[C@H]1C(=O)N1CCC[C@H]1C(=O)N1CCC[C@H]1C(=O)N[C@@H](CO)C(=O)N[C@@H](CCCCNC(=O)COCCOCCNC(=O)COCCOCCNC(=O)CC[C@H](NC(=O)CCCCCCCCCCCCCCCCCCC(=O)O)C(=O)O)C(N)=O)C(C)C` [Compound 154], the half-maximal effective concentration (EC50) at GLP-1 receptor [1] is 1 to 10 nM; at GIP receptor [2], above 1000 nM; at GLP-1 receptor [3], above 1000 nM; on GIP receptor [4], 10 to 100 nM. For the same compound, the Emax stood at 99% at GLP-1 receptor [1] and 106% on GIP receptor [4].
As to `CC[C@H](C)[C@H](NC(=O)[C@H](CC(C)C)NC(=O)[C@H](Cc1c[nH]c2ccccc12)NC(=O)[C@H](CCC(N)=O)NC(=O)[C@@H](NC(=O)[C@H](Cc1ccccc1)NC(=O)[C@H](C)NC(=O)[C@H](CCCCNC(=O)COCCOCCNC(=O)COCCOCCNC(=O)CC[C@H](NC(=O)CCCCCCCCCCCCCCCCCCC(=O)O)C(=O)O)NC(=O)[C@H](CCC(N)=O)NC(=O)[C@H](C)NC(=O)[C@@H](NC(=O)[C@H](CCCCN)NC(=O)[C@H](CC(=O)O)NC(=O)[C@H](CC(C)C)NC(=O)C(C)(C)NC(=O)[C@@H](NC(=O)[C@H](CO)NC(=O)[C@H](Cc1ccc(O)cc1)NC(=O)[C@H](CC(=O)O)NC(=O)[C@H](CO)NC(=O)[C@@H](NC(=O)[C@](C)(Cc1ccccc1F)NC(=O)[C@@H](NC(=O)CNC(=O)[C@H](CCC(=O)O)NC(=O)CCNC(=O)C(C)(C)c1cc(F)cc(C#N)c1)[C@@H](C)O)[C@@H](C)O)[C@@H](C)CC)[C@@H](C)CC)C(C)C)C(=O)N[C@@H](C)C(=O)NCC(=O)NCC(=O)N1CCC[C@H]1C(=O)N[C@@H](CO)C(=O)N[C@@H](CO)C(=O)NCC(=O)N[C@@H](C)C(=O)N1CCC[C@H]1C(=O)N1CCC[C@H]1C(=O)N1CCC[C@H]1C(=O)N[C@@H](CO)C(N)=O` [Compound 245] ({Isobutyryl(2-(3-CN-5-F-Ph))-βAla}-EGT[αMePhe(2-F)]TSDYSI[Aib]LDKIAQK([AEEA-AEEA-γGlu-C20 diacid])AFVQWLIAGGPSSGAPPPS-NH2), the EC50 on GLP-1 receptor [1] is 0.1 to 1 nM; on GIP receptor [2], below 1000 nM; on GLP-1 receptor [3], above 1000 nM; at GIP receptor [4], 0.1 to 1 nM. Moreover, the maximal effect (Emax) turned out to be 122% on GLP-1 receptor [1] and 90% at GIP receptor [4].
On to `CC[C@H](C)[C@H](NC(=O)[C@H](CC(C)C)NC(=O)[C@H](Cc1c[nH]c2ccccc12)NC(=O)[C@H](CCC(N)=O)NC(=O)[C@@H](NC(=O)[C@H](Cc1ccccc1)NC(=O)[C@H](C)NC(=O)[C@H](CCCCNC(=O)COCCOCCNC(=O)COCCOCCNC(=O)CC[C@H](NC(=O)CCCCCCCCCCCCCCCCCCC(=O)O)C(=O)O)NC(=O)[C@H](CCC(N)=O)NC(=O)[C@H](C)NC(=O)[C@@H](NC(=O)[C@H](CCCCN)NC(=O)[C@H](CC(=O)O)NC(=O)[C@H](CC(C)C)NC(=O)C(C)(C)NC(=O)[C@@H](NC(=O)[C@H](CO)NC(=O)[C@H](Cc1ccc(O)cc1)NC(=O)[C@H](CC(=O)O)NC(=O)[C@H](CO)NC(=O)[C@@H](NC(=O)[C@H](Cc1ccccc1)NC(=O)[C@@H](NC(=O)CNC(=O)[C@H](CCC(=O)O)NC(=O)[C@H]1CCCN(C(=O)C(C)(C)c2cc(F)cc(C#N)c2)C1)[C@@H](C)O)[C@@H](C)O)[C@@H](C)CC)[C@@H](C)CC)C(C)C)C(=O)N[C@@H](C)C(=O)NCC(=O)NCC(=O)N1CCC[C@H]1C(=O)N[C@@H](CO)C(=O)N[C@@H](CO)C(=O)NCC(=O)N[C@@H](C)C(=O)N1CCC[C@H]1C(=O)N1CCC[C@H]1C(=O)N1CCC[C@H]1C(=O)N[C@@H](CO)C(N)=O` [Compound 212] ({Isobutyryl(2-(3-CN-5-F-Ph))}-[X84]EGTFTSDYSI[Aib]LDKIAQK([AEEA-AEEA-γGlu-C20 diacid])AFVQWLIAGGPSSGAPPPS-NH2), for which the EC50 at GLP-1 receptor [1] was 10 to 100 nM; at GIP receptor [2], above 1000 nM; on GLP-1 receptor [3], above 1000 nM; on GIP receptor [4] it was above 1000 nM. Also, the Emax on GLP-1 receptor [1] was determined as 89%.

The term EC50 denotes the concentration needed to bring the measured effect to its halfway point. The Emax is the greatest response seen or fitted, relative to the assay's reference.
